Structures can show the parent of a compound that is named as a salt.
Assays:
yeast cells = test: Viability and magnetic levitation of yeast cells after drug treatment; type: cell-based; conditions: for levitation heights, magnetic properties and intrinsic magnetic signatures of yeast cells: 100 μM for 24 hours, 15 minutes of magnetic levitation, FIG. 14b; for viability of yeast cells (optical density): 100 μM, 24 hours, FIG. 14a
Procedure: Looking at FIG. 14, the magnetic levitation and characteristics of yeast cells are illustrated that have either not been exposed or have been exposed to various drug treatments for some duration of time. FIG. 14a graphs the viability of yeast cells after different drug treatments (i.e., no drug treatment/control, 100 μM cantharidin, or 100 μM fluconazole) for 24 hours. […] FIG. 14b provides micrographs illustrating how, after 15 minutes of magnetic levitation, the levitation heights, magnetic properties and intrinsic magnetic signatures of yeast cells are altered after drug treatment with 100 μM cantharidin and 100 μM fluconazole for 24 hours.
Turning now to FIG. 15, this figure provides data relating to the observed drug responses and observed changes in magnetic profile of cells. […] FIG. 15d provides various micrographs of cells treated with different concentration of drug (fluconazole), the treatment concentration being listed above each micrograph. […] It is further noted that these changes can be monitored with the magnetic levitation system at the single-cell level.
(§1) In the examples above, to load samples into a microcapillary tube, microcapillaries were simply dipped into the sample vials, and sample filled into the capillary due to capillary forces. For each experiment, new microcapillary was used. Further, unless otherwise stated, cells were resuspended in 200 μL of 40 mM Gadolinium solution and loaded in 1.0×1.0 mm square microcapillary tubes (wall thickness 0.2 mm) by superficial tension action. Critoseal™ was inserted into either end of the microcapillary to prevent cells from drifting during analysis. The capillary was then loaded into a slot between the magnets and cells were imaged using either QImaging Emc^2 EMCCD camera on an Olympus BX62 microscope or a Qimaging EXi CCD camera on a Zeiss Axioscope microscope. For high-resolution images, a fluorescence microscope leveled on its side was perfectly horizontally placed, and used a mirror-free magnetic levitation setup. The images were analyzed with Slidebook 5.5. (3i, Denver, CO), ImageProPlus 7 (Media Cybernetics, Rockville, MD), and iVison 4.7 (Biovision, Exton PA).

E. coli = test: Magnetic levitation profile of E. coli after antibiotic treatment; type: cell-based; conditions: for change of levitation heights and cellular magnetic profiles versus untreated control: E. coli treated two hours, 1 mg/mL, FIG. 21
Excerpt: As the bacteria respond to the stimuli and antibiotics, their density are altered. This directly reflects on their levitation heights.
With forward reference to FIG. 21, differences are illustrated in the observed magnetic levitation profiles of E. coli cells after different types of antibiotic treatment. […] The magnetic levitation profile of each of these antibiotics are compared to a control (i.e., untreated E. coli cells) in FIGS. 21a, 21b, and 21c, respectively.
as §1

sickle RBCs = test: Levitation of healthy and sickle RBCs after sodium metabisulfite-induced dehydration; type: cell-based, human; conditions: 10 μM for 10 minutes at room temperature, images after 10 minutes of levitation
Procedure: RBCs isolated from healthy and sickle cell disease patients were washed three times and incubated with 10 μM sodium metabisulfite for 10 minutes at room temperature. Cells were levitated as described above and images were recorded after 10 minutes. To increase the contrast of the cells against the background, images were filtered using an edge detection algorithm (Roberts).

RBCs = test: Levitation of RBCs after photolysis of caged ATP; type: cell-based; conditions: extracellular ATP 0 to close to 10 mM after photolysis, 40 mM Gd+, FIG. 4c
Excerpt: Consistent with this possibility that UV-induced ROS increased the paramagnetic signature of RBCs, in areas with increased cell density, RBCs formed distinct aggregates, shown as the red circle in FIG. 4b, likely due to weak paramagnetic attraction between ROS-containing RBCs. To test this hypothesis, a burst of extracellular ATP to dissociate 2-3 DPG (2,3-diphosphoglycerate) from hemoglobin was used, a process that also transitions RBCs from diamagnetic to weak paramagnetic cells. Isolated RBCs were washed and resuspended in HBSS^++ containing 40 mM Gd+ and 10 mM caged ATP (Life Technologies). RBCs were loaded into the capillary, placed between the magnets, and allowed to focus. Next, a region of 60×900 μm located about 70 μm above the levitating RBCs was selected and illuminated by a […] for 1 second at 100% intensity. The un-caged ATP, released into the suspension increased the extracellular concentration of ATP from 0 to nearly 10 mM. Cells were recorded using Slidebook 5.5. Following photolysis, caged-ATP became ATP, effectively increasing the concentration of biologically-active, extracellular ATP from 0 to close to 10 mM. […]

[1] = test system: multi-drug resistant E. coli; test: Magnetic levitation profile of multi-drug resistant E. coli after antibiotic treatment; type: cell-based; conditions: multi-drug resistant E. coli clinical isolate, 1 mg/mL, two hours, FIG. 22
Procedure: as §1

[2] = test system: multi-drug resistant E. coli; conditions: cited from earlier work
human PMNs = test: Static levitation of activated and GSH-treated PMNs; type: cell-based
Procedure: Freshly isolated PMNs were activated by incubating them either with buffer (resting PMN), GSH-ME (GSH-treated PMN), or 10 nM PMA (activated PMN) for 5 minutes, washing twice, mixing, and resuspending them in 35 mM Gd+ solution. Prior to treatments, cells were labeled either with Cell Tracker Green (activated PMN) or Cell Mask Deep Red (GSH-treated PMN).
The response of human PMNs during the activation phase of phagocytosis was studied by incubating PMNs with phorbol 12-myristate 13-acetate (PMA, 10 nM) for 10 minutes. As a control, PMNs were left in buffer for 10 minutes. Cells were then washed, fluorescently labeled, mixed together, and loaded into the magnetic levitation setup.
[formula] […] The same samples were simultaneously examined by flow cytometry for changes in forward and side-scatter properties of PMNs associated with PMA activation, shown in FIG. 3d.
To further understand the effect of intracellular ROS on the final position of levitating cells, cell permeable glutathione (GSH), an ROS scavenger was used.

MDA breast cancer cells = test system: MDA breast cancer cells
Procedure: FIG. 12b details the real-time observation of a HCl-applied single cell in which a viability assay was also conducted using Calcein (green fluorescent) for live cell and Propidium Iodine (red fluorescent) for dead cell. Fluorescent images and bright field images were overlapped each other to compose the micrographs at different time point.

In the case of `C[C@@]12C(=O)OC(=O)[C@]1(C)[C@H]1CC[C@@H]2O1` [cantharidin], the “levitation heights, magnetic properties and intrinsic magnetic signatures of yeast cells” value (yeast cells) is reported as “altered” and the “viability of yeast cells (optical density)” value (yeast cells) is reported as “Different viabilities are observed”.
In the case of `O=C(O)c1cn(C2CC2)c2cc(N3CCNCC3)c(F)cc2c1=O` [ciprofloxacin], the “change of levitation heights and cellular magnetic profiles versus untreated control” value (E. coli) is reported as “change the levitation heights and cellular magnetic profiles in a different manner”.
For `O=S([O-])S(=O)(=O)[O-].[Na+].[Na+]` [sodium metabisulfite], the “density of a subpopulation of sickle RBCs after treatment” value (sickle RBCs) was “significantly denser than healthy RBCs”.
In the case of `Nc1ncnc2c1ncn2[C@@H]1O[C@H](COP(=O)(O)OP(=O)(O)OP(=O)(O)O)[C@@H](O)[C@H]1O` [ATP], the “changes in magnetic properties and levitation of RBCs” value (RBCs) is reported as “loss of levitation”.
In the case of `OC(Cn1cncn1)(Cn1cncn1)c1ccc(F)cc1F` [fluconazole], the “levitation heights, magnetic properties and intrinsic magnetic signatures of yeast cells” value (yeast cells) is reported as “altered”, the “viability of yeast cells (optical density)” value (yeast cells) is reported as “Different viabilities are observed” and the “cellular magnetic profiles and single-cell densities” value (yeast cells; 25, 50 or 100 μM, FIG. 15) is reported as “cellular magnetic profiles and densities change”.
For gentamicin, the “change of levitation heights and cellular magnetic profiles versus untreated control” value (E. coli) is listed as “change the levitation heights and cellular magnetic profiles in a different manner”, the “change in levitation heights and magnetic levitation profiles” value [1] is listed as “noticeable change” and the “resistance or susceptibility of the clinical isolate” value [2] is listed as “susceptible”.
In the case of `CCOC(=O)CNC(=O)[C@H](CS)NC(=O)CC[C@H](N)C(=O)O` [GSH, Glutathione reduced ethyl ester], the “final levitation position of treated PMNs” value (human PMNs; 35 mM Gd+ solution, FIG. 3e) is reported as “equilibrated closer to resting PMNs”.
With `Cl` [HCl, hydrochloric acid] the “levitation height z of treated cells (bottom of the channel)” value (MDA breast cancer cells; 40 minutes of exposure to 100 mM HCl, FIG. 12a) was −500 μm and the “viability assay (Calcein / Propidium Iodine) of a single cell” value (MDA breast cancer cells; HCl-applied single cell, over 700 seconds, FIG. 12b) was “dying cell”.
With `CC1(C)S[C@@H]2[C@H](NC(=O)[C@H](N)c3ccccc3)C(=O)N2[C@H]1C(=O)O` [ampicillin] the “change of levitation heights and cellular magnetic profiles versus untreated control” value (E. coli) was “change the levitation heights and cellular magnetic profiles in a different manner”, the “differences between untreated and treated bacteria in magnetic levitation heights” value (E. coli; E. coli, FIG. 13) was “significant differences” and the “change in levitation heights and magnetic levitation profiles” value [1] was “no significant change”. The “resistance or susceptibility of the clinical isolate” value [2] was “resistant”.
For `CCCCCCCCCCCCCC(=O)O[C@@H]1[C@@H](C)[C@@]2(O)[C@@H](C=C(CO)C[C@]3(O)C(=O)C(C)=C[C@@H]23)[C@@H]2C(C)(C)[C@]12OC(C)=O` [PMA, phorbol 12-myristate 13-acetate], the “size, shape, optical density, magnetic and mass density signatures versus control PMNs” value (human PMNs; 10 nM for 10 minutes, FIG. 3a) was “distinct differences” and the “roundness of cells versus buffer-treated PMNs” value (human PMNs; PMA-activated PMNs, FIG. 3c) was “significant difference”.

Reference: US12066445B2, “System and method for cell levitation and monitoring” (THE BRIGHAM AND WOMEN'S HOSPITAL, INC., priority 2014, dated 2024)
